Reference: US10421754B2, “Quinazoline derivative” (CSPC ZHONGQI PHARMACEUTICAL TECHNOLOGY (SHIJIAZHUANG) CO., …, priority 2014, dated 2019)

Legend:
HCC827 = experiment: In vitro cell experiment (MTT), HCC827; type: cell-based; settings: 72 h, human non-small cell lung carcinoma (EGFR1 19 exon mutation)
Method: (§1) Cells in logarithmic growth phase were seeded at a certain density in a 96-well plate (200 μL/well). The cells were allowed to grow for 24 h and subsequently treated with different concentrations of drugs (including a blank group and a control group) and incubated for 72 h at 37° C. Each concentration in a given experiment was tested in triplicate. After 72 h of exposure, 20 μL of the MTT labeling reagent was added to the medium (the final concentration of MTT was 0.5 mg/mL), and the cells were incubated for additional 4 h at 37° C. Following this process, 180 μL of the medium was removed and 130 μL of DMSO was added to each well, or the medium was completely removed and 150 μL of DMSO was added to each well. Then the plate was shaken and mixed in a micro-oscillator. Finally the optical density (OD) of each sample was measured in a micro-plate reader at 550 nm. Cell inhibition rate was calculated according to the following formula: […]
(§2) According to cell inhibition rates, IC50 was calculated by LOGIT method. The experiments were repeated twice and the data was expressed as means±SD.

3T3swiss = experiment: In vitro cell experiment (MTT), 3T3swiss; type: cell-based; settings: Fibroblast, 72 h, mouse fibroblasts (PDGFR overexpressing)
Method: as §1, §2

Eca109 = experiment: In vitro cell experiment (MTT), Eca109; type: cell-based; settings: ECa-109, 72 h, human esophageal carcinoma cells
Method: as §1, §2

A549 = experiment: In vitro cell experiment (MTT), A549; type: cell-based; settings: 72 h, human non-small-cell lung carcinoma cells (EGFR1 wildtype)
Method: as §1, §2

A431 = experiment: In vitro cell experiment (MTT), A431; type: cell-based; settings: A-431, 72 h, human epidermoid carcinoma (EGFR1 overexpressing)
Method: as §1, §2

HT-29 = experiment: In vitro cell experiment (MTT), HT-29; type: cell-based; settings: 72 h, human colon carcinoma cells (expressing both c-KIT and PDGFR)
Method: as §1, §2

Bel-7402 = experiment: In vitro cell experiment (MTT), Bel-7402; type: cell-based; settings: 72 h, human hepatoma carcinoma cells
Method: as §1, §2

PC-9 = experiment: In vitro cell experiment (MTT), PC-9; type: cell-based; settings: 72 h, human non-small-cell lung carcinoma cells (EGFR1 19 exon mutation)
Method: as §1, §2

SGC7901 = experiment: In vitro cell experiment (MTT), SGC7901; type: cell-based; settings: SGC-7901, 72 h, human gastric carcinoma cells
Method: as §1, §2

RET = RET (Homo sapiens, UniProt P07949); experiment: In vitro enzyme experiment (ELISA), RET; type: biochemical; settings: Poly (Glu, Tyr)4:1 substrate, 5 μM ATP
Method: RET: A receptor involved in thyroid cancer
(§3) ELISA: The enzyme plate was coated by enzyme reaction substrate (Poly (Glu, Tyr)4:1) at a density of 20 μg/ml. Then the enzyme, the sample and 5 μM ATP were mixed in the well to react. After the reaction, the substrate phosphorylation was detected by anti-phosphotyrosine monoclonal antibody (4G10). In the next step, the goat-anti-mouse IgG linking with horse radish peroxidase (HRP) and tetramethylbenzidine (TMB) were added sequentially in the well to evaluate the level of substrate phosphorylation by the degree of color depth. In the experiment, a blank group without tyrosine kinase and a control group with the corresponding concentration of DMSO were established. Finally, 50 μL/well of H2SO4 at a concentration of 0.18M was added in each well to stop the reaction. The optical density (OD) of each sample was measured in a micro-plate reader at 450 nm.
(§4) The relative inhibition rate of the compound against tyrosine kinase protein was determined.
(§5) According to the inhibition rates at different concentrations, IC50 was calculated by LOGIT method. The experiments were repeated three times, and the average of three IC50 values was the final index to evaluate the ability of inhibition.

HCT116 = experiment: In vitro cell experiment (MTT), HCT116; type: cell-based; settings: HCT-116, 72 h, human colon carcinoma cells
Method: as §1, §2

BTK = BTK (Homo sapiens, UniProt Q06187); experiment: In vitro enzyme experiment (ELISA), BTK; type: biochemical; settings: Poly (Glu, Tyr)4:1 substrate, 5 μM ATP
Method: BTK: Bruton tyrosine kinase
as §3, §4, §5

A375 = experiment: In vitro cell experiment (MTT), A375; type: cell-based; settings: A-375, 72 h, human melanoma cells (KDR expressing)
Method: as §1, §2

CFPAC-1 = experiment: In vitro cell experiment (MTT), CFPAC-1; type: cell-based; settings: 72 h, human pancreatic carcinoma cells
Method: as §1, §2

EGFR = EGFR (Homo sapiens, UniProt P00533); experiment: In vitro enzyme experiment (ELISA), EGFR; type: biochemical; settings: Poly (Glu, Tyr)4:1 substrate, 5 μM ATP
Method: EGFR: Human epidermal growth factor receptor 1
as §3, §4, §5

FGFR-1 = FGFR-1 (Homo sapiens, UniProt P11362); experiment: In vitro enzyme experiment (ELISA), FGFR-1; type: biochemical; settings: Poly (Glu, Tyr)4:1 substrate, 5 μM ATP
Method: FGFR-1: Fibroblast growth factor receptor 1
as §3, §4, §5

H292 = experiment: In vitro cell experiment (MTT), H292; type: cell-based; settings: NCI-H292, 72 h, human lung carcinoma cells (EGFR1 overexpressing)
Method: as §1, §2

TT = experiment: In vitro cell experiment (MTT), TT; type: cell-based; settings: 72 h, human thyroid carcinoma cells (RET C634W mutation)
Method: as §1, §2

SK-OV-3 = experiment: In vitro cell experiment (MTT), SK-OV-3; type: cell-based; settings: 72 h, human ovarian carcinoma cells (EGFR2 overexpressing)
Method: as §1, §2

FLT-1 = FLT-1 (Homo sapiens, UniProt P17948); experiment: In vitro enzyme experiment (ELISA), FLT-1; type: biochemical; settings: Poly (Glu, Tyr)4:1 substrate, 5 μM ATP
Method: FLT-1: Human vascular endothelial growth factor receptor 1
as §3, §4, §5

A498 = experiment: In vitro cell experiment (MTT), A498; type: cell-based; settings: 72 h, human renal carcinoma cells
Method: as §1, §2

KDR = KDR (Homo sapiens, UniProt P35968); experiment: In vitro enzyme experiment (ELISA), KDR; type: biochemical; settings: Poly (Glu, Tyr)4:1 substrate, 5 μM ATP
Method: KDR: Human vascular endothelial growth factor receptor 2
as §3, §4, §5

[1] = Mouse maximum tolerated dose (MTD) experiment; settings: in vivo, mice, oral, administered 7 days then observed 7 days
Method: In the mouse MTD experiment, the mice were administrated with the present compounds.
Healthy mice, having a small difference in body's weights, were chosen. The chosen mice were placed in different layers of cages according to their body's weights. In each layer, the mice were randomly divided into groups. In each group, there were three mice.
The administration dosages were 1000, 500, 250, 125, 62.5 and 31.25 mg/kg respectively and each two dosages differed by a factor of 2. For each of administration dosages, three mice were allotted. The mice were administrated with the present compounds for 7 days and then observed for the next 7 days without the present compounds.
The present compounds were orally administrated with the mice according to the administration dosage and the body weight.

HUVEC = experiment: In vitro cell experiment (MTT), HUVEC; type: cell-based; settings: 72 h, human umbilical vein endothelial cell (KDR overexpressing)
Method: as §1, §2

AXL = AXL (Homo sapiens, UniProt P30530); experiment: In vitro enzyme experiment (ELISA), AXL; type: biochemical; settings: Poly (Glu, Tyr)4:1 substrate, 5 μM ATP
Method: as §3, with “AXL: Anaplastic lymphoma kinase Methods: ELISA:” for “ELISA:”, “nm. The relative inhibition rate of the compound against tyrosine kinase protein was determined. According to the inhibition rates at different concentrations, IC50 was calculated by LOGIT method. The experiments were repeated three times, and the average of three IC50 values was the final index to evaluate the ability of inhibition.” for “nm.”

PDGFRβ = PDGFRβ (Homo sapiens, UniProt P09619); experiment: In vitro enzyme experiment (ELISA), PDGFRβ; type: biochemical; settings: Poly (Glu, Tyr)4:1 substrate, 5 μM ATP
Method: PDGFRβ: Platelet-derived growth factor receptor β
as §3, §4, §5

Chain of KDR (P35968 20-1356): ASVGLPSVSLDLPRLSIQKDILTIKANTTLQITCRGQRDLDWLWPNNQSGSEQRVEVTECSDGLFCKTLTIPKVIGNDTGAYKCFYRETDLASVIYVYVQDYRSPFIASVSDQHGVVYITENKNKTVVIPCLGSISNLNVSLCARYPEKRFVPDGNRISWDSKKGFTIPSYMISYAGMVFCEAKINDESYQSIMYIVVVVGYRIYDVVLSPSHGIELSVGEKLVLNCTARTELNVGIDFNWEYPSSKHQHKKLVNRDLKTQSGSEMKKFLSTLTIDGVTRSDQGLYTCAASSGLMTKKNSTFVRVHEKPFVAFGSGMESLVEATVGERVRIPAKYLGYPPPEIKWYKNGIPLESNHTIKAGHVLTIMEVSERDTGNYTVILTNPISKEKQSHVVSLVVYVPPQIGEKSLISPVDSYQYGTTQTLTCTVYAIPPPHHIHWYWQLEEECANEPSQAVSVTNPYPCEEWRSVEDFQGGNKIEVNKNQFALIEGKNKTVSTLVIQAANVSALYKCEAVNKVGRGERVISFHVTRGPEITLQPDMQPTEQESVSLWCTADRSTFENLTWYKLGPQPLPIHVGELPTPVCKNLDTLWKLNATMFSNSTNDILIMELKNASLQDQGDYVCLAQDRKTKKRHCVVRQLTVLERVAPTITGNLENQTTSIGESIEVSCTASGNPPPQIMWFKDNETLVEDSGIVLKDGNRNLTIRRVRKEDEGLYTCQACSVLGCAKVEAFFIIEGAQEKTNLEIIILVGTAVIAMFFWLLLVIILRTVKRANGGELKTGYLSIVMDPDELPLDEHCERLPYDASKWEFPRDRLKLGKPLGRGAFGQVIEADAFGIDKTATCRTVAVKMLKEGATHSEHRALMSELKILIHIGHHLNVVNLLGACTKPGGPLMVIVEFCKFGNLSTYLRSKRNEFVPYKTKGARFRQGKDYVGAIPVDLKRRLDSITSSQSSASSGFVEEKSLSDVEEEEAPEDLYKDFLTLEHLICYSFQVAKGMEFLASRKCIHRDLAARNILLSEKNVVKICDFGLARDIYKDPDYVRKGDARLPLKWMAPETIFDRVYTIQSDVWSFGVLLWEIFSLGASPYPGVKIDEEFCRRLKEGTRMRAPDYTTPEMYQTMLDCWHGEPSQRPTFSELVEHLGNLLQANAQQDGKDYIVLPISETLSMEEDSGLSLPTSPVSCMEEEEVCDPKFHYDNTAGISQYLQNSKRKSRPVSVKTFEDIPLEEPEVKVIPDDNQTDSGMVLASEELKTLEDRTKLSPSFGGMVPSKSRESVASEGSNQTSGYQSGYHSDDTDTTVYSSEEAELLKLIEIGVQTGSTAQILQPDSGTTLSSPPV
Chain of PDGFRβ (P09619 33-1106, species assumed): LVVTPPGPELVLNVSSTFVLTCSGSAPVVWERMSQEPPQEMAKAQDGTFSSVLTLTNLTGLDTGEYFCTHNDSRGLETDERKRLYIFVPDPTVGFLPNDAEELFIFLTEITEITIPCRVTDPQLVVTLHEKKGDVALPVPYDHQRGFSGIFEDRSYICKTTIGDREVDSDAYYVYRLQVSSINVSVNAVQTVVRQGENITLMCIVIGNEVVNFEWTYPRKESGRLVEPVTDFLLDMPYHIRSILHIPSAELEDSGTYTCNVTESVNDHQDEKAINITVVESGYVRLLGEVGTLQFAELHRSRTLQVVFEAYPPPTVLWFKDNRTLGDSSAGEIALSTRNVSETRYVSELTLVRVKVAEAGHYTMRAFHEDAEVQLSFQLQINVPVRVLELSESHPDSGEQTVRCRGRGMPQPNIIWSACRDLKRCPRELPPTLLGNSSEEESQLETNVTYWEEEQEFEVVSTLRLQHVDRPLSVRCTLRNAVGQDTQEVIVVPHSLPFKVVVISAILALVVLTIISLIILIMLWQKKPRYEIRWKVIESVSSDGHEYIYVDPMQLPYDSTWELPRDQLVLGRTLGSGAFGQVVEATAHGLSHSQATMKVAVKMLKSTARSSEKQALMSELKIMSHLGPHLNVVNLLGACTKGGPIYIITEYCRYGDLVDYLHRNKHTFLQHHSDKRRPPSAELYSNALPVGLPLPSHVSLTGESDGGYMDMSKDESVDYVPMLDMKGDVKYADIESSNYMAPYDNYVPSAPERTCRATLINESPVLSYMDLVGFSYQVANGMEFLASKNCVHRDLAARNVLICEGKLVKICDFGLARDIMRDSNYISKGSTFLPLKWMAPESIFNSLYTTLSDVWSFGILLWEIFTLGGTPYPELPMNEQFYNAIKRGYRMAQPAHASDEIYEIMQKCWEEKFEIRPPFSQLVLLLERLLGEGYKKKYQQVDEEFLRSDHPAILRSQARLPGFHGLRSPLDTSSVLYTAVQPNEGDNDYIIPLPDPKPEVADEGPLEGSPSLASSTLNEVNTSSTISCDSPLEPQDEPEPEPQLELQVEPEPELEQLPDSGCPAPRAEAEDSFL
Chain of BTK (Q06187 whole entry, species assumed): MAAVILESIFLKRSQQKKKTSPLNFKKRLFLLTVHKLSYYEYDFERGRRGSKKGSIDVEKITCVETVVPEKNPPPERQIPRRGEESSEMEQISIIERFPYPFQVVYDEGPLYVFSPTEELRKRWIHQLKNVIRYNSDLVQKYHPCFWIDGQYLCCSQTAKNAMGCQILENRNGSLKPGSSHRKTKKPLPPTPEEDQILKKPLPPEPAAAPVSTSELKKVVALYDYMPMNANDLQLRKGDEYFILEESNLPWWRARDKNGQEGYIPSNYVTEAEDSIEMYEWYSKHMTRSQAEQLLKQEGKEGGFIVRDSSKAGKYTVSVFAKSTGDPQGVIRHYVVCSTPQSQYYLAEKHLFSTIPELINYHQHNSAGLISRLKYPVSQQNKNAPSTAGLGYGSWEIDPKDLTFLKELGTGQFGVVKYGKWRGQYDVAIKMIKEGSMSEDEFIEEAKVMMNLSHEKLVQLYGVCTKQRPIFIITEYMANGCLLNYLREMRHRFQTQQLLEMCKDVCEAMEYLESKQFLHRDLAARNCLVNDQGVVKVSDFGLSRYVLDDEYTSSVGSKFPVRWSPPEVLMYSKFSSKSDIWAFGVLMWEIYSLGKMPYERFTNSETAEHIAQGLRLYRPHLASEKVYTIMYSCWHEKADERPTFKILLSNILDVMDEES
Chain of EGFR (P00533 25-1210): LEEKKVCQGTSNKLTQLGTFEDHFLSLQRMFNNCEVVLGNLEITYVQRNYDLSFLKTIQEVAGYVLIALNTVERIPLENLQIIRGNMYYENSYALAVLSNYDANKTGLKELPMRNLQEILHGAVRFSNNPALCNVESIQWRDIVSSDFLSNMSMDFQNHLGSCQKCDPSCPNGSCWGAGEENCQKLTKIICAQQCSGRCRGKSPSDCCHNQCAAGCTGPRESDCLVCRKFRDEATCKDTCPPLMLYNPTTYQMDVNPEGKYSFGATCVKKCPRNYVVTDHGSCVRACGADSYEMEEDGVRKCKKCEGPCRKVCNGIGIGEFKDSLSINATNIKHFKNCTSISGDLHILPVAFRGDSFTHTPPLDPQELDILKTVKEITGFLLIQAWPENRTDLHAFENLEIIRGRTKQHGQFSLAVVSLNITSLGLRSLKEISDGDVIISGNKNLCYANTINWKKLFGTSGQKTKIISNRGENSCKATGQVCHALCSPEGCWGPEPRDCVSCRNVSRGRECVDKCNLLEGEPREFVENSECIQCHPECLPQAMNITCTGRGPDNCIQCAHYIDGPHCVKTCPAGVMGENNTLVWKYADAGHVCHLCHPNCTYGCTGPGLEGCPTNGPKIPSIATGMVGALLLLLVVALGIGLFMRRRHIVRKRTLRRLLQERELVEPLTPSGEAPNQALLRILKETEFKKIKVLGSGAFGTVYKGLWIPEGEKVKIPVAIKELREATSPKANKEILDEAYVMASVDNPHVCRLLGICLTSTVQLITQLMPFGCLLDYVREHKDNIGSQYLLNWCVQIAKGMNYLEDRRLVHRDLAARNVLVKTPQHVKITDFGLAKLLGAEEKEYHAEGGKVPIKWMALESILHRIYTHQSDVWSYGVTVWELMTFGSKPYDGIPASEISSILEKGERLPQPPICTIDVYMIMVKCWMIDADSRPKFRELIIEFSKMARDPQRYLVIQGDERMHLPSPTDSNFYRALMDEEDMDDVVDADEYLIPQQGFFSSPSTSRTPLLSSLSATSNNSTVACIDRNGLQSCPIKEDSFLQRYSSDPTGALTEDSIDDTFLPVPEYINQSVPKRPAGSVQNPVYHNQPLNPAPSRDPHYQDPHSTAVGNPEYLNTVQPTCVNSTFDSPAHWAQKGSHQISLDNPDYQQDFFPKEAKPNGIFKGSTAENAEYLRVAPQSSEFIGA
Chain of AXL (P30530 473-894): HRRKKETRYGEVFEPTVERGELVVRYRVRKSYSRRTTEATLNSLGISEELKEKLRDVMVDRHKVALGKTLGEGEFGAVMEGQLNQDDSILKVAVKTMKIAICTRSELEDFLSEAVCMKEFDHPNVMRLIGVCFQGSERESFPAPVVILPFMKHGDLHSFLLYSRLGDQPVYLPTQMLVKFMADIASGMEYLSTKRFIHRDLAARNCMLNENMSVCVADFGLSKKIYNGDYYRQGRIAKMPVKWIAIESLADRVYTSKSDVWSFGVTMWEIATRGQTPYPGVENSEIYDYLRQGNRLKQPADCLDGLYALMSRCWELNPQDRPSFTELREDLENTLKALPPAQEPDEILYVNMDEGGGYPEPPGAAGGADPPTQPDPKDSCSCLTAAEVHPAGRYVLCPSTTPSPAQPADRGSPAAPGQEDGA

Compound	IC50 (3T3swiss) [nM]	IC50 (Eca109) [nM]	IC50 (A549) [nM]	IC50 (A431) [nM]	IC50 (HT-29) [nM]	IC50 (Bel-7402) [nM]	IC50 (PC-9) [nM]	IC50 (SGC7901) [nM]	IC50 (RET) [nM]	IC50 (HCT116) [nM]	IC50 (BTK) [nM]	IC50 (A375) [nM]	IC50 (CFPAC-1) [nM]	IC50 (FGFR-1) [nM]	IC50 (H292) [nM]	IC50 (TT) [nM]	IC50 (SK-OV-3) [nM]	IC50 (FLT-1) [nM]	IC50 (A498) [nM]	IC50 (KDR) [nM]	other results
COc1cc2c(Nc3ccc(Br)cc3F)ncnc2cc1OCCCN1CCCC1 [Compound 19, 4-(4-bromo-2-fluoroanilino)-6-methoxy-7-(3-(pyrrolidine-1-yl)propoxy)quinazoline]	1090	4650	1430	1060	1660	3590	6.3	2760	9.1	561	220	112	4080	15.7	38.2	110	1960	25.6	2060	10.6	IC50 (HCC827): 0.1 nM; IC50 (EGFR): 66.3 nM; MTD [1]: 250 to 500 mg/kg; IC50 (HUVEC): 21.2 nM; IC50 (AXL): 1550 nM; IC50 (PDGFRβ): 113 nM
COc1cc2c(Nc3ccc(Br)cc3F)ncnc2cc1OCCCCN(C)C [Compound 28, 4-(4-bromo-2-fluoroanilino)-6-methoxy-7-(4-(dimethylamino)-butoxy)quinazoline]	1610	4880	1920	1360	1470	4900	9.3	3960	13.5	704	278	108	4470	17.8	66.6	118	1830	27.4	2270	18.4	IC50 (HCC827): 0.1 nM; IC50 (EGFR): 90.4 nM; MTD [1]: 250 to 500 mg/kg; IC50 (HUVEC): 20.1 nM; IC50 (AXL): 1470 nM; IC50 (PDGFRβ): 156 nM
COc1cc2c(Nc3ccc(Cl)cc3F)ncnc2cc1OCCCN1CCCC1 [Compound 44, 4-(2-fluoro-4-chloroanilino)-6-methoxy-7-(3-(pyrrolidin-1-yl)-propoxy)quinazoline, reference compound]	2900	6980	4900	3570	3460	9680	16.8	5250	23.4	988	424	315	6720	39.8	124	257	4030	51.2	3050	40.5	IC50 (HUVEC): 198 nM; IC50 (AXL): 2990 nM; IC50 (PDGFRβ): 306 nM
COc1cc2c(Nc3ccc(Br)cc3F)ncnc2cc1OCCCN1CCCCC1 [Compound 45, 4-(2-fluoro-4-bromoanilino)-6-methoxy-7-(3-(piperidin-1-yl)-propoxy)quinazoline, reference compound]	3790	7020	5020	4150	3410	6260	18.7	6260	27.5	1060	414	290	6720	41.6	105	314	4990	50.1	3150	38.6	IC50 (HCC827): 9.7 nM; IC50 (EGFR): 159 nM; IC50 (HUVEC): 187 nM; IC50 (AXL): 2990 nM; IC50 (PDGFRβ): 328 nM
